Measurements as given in ChEMBL document CHEMBL3297736, “Rational improvement of the affinity and selectivity of integrin binding of grafted lasso peptides” (J Med Chem, 2014).
pIC50: −log10 of the molar value. Peptide text beside a SMILES is read from it.

Legend:
Integrin alpha-V/beta-3 [1] = target: T1, Integrin alpha-V/beta-3 (Homo sapiens, UniProt P05106+P06756); test: Inhibition of alphavbeta3 integrin-mediated cell adhesion in HUVEC after 15 mins by matrigel assay; assay type: protein-complex assay
Integrin alpha-V/beta-3 [2] = target: T1, Integrin alpha-V/beta-3; test: Inhibition of alphavbeta3 integrin-mediated capillary tube formation in HUVEC after 16 hrs by matrigel assay; assay type: protein-complex assay
[3] = target: Integrin alpha-IIb/beta-3 (Homo sapiens, UniProt P05106+P08514); test: Inhibition of fibrinogen binding to human alpha2b/beta3 integrin after 1 hr by ELISA; assay type: protein-complex assay
Integrin alpha-V/beta-3 [4] = target: T1, Integrin alpha-V/beta-3; test: Inhibition of vitronectin binding to human alphaVbeta3 integrin after 2 hrs by ELISA; assay type: protein-complex assay
Target sequence in this assay (P05106 27-788 limits assumed): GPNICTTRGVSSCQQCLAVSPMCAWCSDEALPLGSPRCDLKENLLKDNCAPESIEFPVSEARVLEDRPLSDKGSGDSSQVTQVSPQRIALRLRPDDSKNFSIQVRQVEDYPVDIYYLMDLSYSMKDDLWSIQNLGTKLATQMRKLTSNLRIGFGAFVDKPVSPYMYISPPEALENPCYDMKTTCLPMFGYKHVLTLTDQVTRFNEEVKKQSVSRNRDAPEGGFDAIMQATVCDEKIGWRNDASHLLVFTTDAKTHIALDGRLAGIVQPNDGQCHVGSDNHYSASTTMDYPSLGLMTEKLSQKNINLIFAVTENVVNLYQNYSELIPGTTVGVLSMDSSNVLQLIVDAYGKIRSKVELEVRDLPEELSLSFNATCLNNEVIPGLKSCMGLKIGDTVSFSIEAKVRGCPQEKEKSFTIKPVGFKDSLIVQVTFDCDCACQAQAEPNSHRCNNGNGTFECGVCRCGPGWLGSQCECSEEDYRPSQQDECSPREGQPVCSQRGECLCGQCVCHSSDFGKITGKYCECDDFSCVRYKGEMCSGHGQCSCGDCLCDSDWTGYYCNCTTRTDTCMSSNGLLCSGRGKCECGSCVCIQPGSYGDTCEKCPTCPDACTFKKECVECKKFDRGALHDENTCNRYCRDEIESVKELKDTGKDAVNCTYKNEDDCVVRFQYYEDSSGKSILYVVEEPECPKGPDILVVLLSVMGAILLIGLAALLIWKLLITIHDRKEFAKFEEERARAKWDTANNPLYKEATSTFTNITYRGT
Target sequence in this assay (P06756 31-889 limits assumed): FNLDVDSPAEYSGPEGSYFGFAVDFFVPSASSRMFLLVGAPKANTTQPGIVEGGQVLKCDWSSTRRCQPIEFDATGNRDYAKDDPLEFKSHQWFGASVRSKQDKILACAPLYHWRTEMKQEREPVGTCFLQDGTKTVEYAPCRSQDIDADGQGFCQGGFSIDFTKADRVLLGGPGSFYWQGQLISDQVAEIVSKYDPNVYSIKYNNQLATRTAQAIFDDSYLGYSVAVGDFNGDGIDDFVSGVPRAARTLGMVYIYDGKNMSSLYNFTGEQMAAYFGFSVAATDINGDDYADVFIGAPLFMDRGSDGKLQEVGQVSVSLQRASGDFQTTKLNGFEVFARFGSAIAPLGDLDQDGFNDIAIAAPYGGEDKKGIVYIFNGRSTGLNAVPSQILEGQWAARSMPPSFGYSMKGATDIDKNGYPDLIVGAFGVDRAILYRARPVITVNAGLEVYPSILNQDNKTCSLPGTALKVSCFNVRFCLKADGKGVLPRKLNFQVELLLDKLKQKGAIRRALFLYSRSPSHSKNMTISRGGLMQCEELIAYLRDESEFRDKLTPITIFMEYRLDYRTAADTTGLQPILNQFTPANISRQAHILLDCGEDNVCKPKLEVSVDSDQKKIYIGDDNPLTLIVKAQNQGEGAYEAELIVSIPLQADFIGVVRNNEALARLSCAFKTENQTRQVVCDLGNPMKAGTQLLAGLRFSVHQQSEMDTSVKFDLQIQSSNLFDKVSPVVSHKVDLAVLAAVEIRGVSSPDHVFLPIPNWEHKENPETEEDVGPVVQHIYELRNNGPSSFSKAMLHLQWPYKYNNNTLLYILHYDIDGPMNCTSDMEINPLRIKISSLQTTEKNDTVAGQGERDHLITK
Target sequence in this assay (P06756 891-1048 limits assumed): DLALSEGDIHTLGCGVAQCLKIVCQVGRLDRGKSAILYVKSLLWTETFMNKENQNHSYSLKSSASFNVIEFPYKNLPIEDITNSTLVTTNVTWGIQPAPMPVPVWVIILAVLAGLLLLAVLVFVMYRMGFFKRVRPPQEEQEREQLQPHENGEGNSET

Integrin alpha-V/beta-5 = Integrin alpha-V/beta-5 (Homo sapiens, UniProt P06756+P18084); test: Inhibition of vitronectin binding to human alphaVbeta5 integrin after 1 hr by ELISA; assay type: protein-complex assay
Homo sapiens = species: Homo sapiens; test: Selectivity ratio IC50 for human alpha2b/beta3 integrin to IC50 for human alphaVbeta3 integrin
Integrin alpha-5/beta-1 = Integrin alpha-5/beta-1 (Homo sapiens, UniProt P05556+P08648); test: Inhibition of fibronectin binding to human alpha5beta1 integrin after 1 hr by ELISA; assay type: protein-complex assay

Chain of Integrin alpha-IIb/beta-3 (P05106 27-788 limits assumed): as the sequence (P05106 27-788 limits assumed) above
Chain of Integrin alpha-IIb/beta-3 (P08514 32-887 limits assumed): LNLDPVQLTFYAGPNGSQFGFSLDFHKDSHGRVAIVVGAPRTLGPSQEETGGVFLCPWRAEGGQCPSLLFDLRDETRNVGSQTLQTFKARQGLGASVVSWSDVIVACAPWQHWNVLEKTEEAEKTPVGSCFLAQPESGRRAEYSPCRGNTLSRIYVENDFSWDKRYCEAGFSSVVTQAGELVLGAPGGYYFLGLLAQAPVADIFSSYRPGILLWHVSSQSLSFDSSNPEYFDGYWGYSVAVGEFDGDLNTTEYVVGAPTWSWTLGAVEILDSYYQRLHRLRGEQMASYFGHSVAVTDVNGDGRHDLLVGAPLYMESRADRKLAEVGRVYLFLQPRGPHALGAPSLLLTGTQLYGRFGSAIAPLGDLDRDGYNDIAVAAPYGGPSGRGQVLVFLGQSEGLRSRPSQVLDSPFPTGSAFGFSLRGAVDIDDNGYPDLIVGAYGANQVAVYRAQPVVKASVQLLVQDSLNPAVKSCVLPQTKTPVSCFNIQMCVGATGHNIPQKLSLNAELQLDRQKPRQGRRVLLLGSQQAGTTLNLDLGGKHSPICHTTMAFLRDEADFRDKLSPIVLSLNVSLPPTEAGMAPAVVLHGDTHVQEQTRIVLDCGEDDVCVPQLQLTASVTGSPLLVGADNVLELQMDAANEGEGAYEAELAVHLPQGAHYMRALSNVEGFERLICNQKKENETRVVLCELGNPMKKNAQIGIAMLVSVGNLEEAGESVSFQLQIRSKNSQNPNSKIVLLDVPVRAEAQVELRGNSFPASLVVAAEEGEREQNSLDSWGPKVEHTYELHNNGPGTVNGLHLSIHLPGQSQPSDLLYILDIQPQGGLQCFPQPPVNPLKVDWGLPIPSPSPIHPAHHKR
Chain of Integrin alpha-IIb/beta-3 (P08514 891-1039 limits assumed): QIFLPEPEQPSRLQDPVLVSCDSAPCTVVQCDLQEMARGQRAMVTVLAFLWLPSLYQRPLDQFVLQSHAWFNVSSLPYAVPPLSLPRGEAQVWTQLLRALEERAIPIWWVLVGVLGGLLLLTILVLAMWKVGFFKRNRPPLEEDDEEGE
Chain of Integrin alpha-V/beta-5 (P06756 31-889 limits assumed): as the sequence (P06756 31-889 limits assumed) above
Chain of Integrin alpha-V/beta-5 (P06756 891-1048 limits assumed): as the sequence (P06756 891-1048 limits assumed) above
Chain of Integrin alpha-V/beta-5 (P18084 24-799 limits assumed): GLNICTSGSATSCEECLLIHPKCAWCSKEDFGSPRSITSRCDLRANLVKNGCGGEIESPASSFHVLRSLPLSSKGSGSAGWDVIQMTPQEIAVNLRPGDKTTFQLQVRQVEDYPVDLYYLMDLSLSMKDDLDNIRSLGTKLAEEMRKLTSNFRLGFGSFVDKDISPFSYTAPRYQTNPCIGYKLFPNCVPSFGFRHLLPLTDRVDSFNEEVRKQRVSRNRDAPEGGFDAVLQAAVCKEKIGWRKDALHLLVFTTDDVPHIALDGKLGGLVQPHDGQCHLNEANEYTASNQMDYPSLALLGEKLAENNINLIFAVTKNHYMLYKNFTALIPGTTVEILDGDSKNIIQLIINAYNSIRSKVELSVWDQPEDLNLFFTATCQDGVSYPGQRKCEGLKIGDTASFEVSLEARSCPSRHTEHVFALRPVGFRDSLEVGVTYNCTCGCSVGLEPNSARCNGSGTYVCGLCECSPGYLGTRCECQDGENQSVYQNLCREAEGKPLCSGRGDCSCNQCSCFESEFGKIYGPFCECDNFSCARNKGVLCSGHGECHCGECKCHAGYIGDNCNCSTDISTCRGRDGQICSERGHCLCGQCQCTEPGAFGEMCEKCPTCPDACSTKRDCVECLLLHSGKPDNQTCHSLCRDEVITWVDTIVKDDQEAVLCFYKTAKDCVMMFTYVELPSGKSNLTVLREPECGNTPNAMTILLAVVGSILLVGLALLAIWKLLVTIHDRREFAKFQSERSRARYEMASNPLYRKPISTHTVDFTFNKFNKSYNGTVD

inhibition (Integrin alpha-V/beta-3 [1])	inhibition (Integrin alpha-V/beta-3 [2])	pIC50 [3]	pIC50 (Integrin alpha-V/beta-3 [4])	pIC50 (Integrin alpha-V/beta-5)	Ratio IC50 (Homo sapiens)	pIC50 (Integrin alpha-5/beta-1)	SMILES
Dose-dependent effect	Dose-dependent effect						NC(N)=NCCC[C@H](N)C(=O)NCC(=O)N[C@@H](CC(=O)O)C(=O)O
		3.89	4.92	4.42			N=C(N)NCCC[C@H](N)C(=O)NCC(=O)N[C@@H](CC(=O)O)C(=O)O
Dose-dependent effect	Dose-dependent effect	3.14	5.39	4.04	177	2.81	N=C(N)NCCC[C@H](N)C(=O)NCC(=O)N[C@@H](CC(=O)O)C(=O)N[C@@H](Cc1ccccc1)C(=O)O (H-RGDF-OH)
